We go through 1 molecule from patent US20240317755A1, “HETEROCYCLIC COMPOUND, AND INTERMEDIATE THEREOF, PREPARATION METHOD THEREFOR AND USE THEREOF” (WUHAN LL SCIENCE AND TECHNOLOGY DEVELOPMENT CO., LTD., priority 2021, published 2024).

The nature of data set [1]: Liver microsome half-life assay, monkey. Particulars: liver microsomes, 1 mg/mL liver microsomal protein, 37° C., read-out: Liver microsome T½ (min) Monkey. It is filed as in vitro ADME. On the procedure:
(§1) The in vitro metabolic stability of the compounds of the present disclosure was determined using warm incubation method of liver microsomes in various species. A proper amount of test compound was added to the liver microsomal reaction system (1 mg/mL liver microsomal protein, 25 U/mL glucose-6-phosphate dehydrogenase, 1 mM NADP, 6 mM D-glucose 6-phosphate, 5 mM MgCl2), and the reaction was started by warm incubation in a water bath at 37° C., then 100 μL of the reaction mixture at each time point was added to a centrifuge tube containing 400 μL of internal standard working solution precooled at 0° C. (containing a solution of 200 ng/mL dexamethasone, diclofenac, tolbutamide, and labetalol in acetonitrile), then the reaction was terminated, centrifuged at 4° C. and 10,000 g for 10 min, and the supernatant was taken into LC-MS for analysis and detection to obtain in vitro metabolic half-lives of the test compounds in liver microsomes of various species.

A short description of data set [2]: Tissue distribution in CD-1 mice after single intragastric administration. Type of data set: in vivo. Conditions: mouse, oral, male CD-1 mice, 10 mg/kg intragastric. The method, then: Mice: CD-1 mice, SPF grade, 9, male, weighting 18 to 22 g (source: SPF (Beijing) Biotechnology Co., Ltd., certificate number: 110324200103036532).
Dispensing: After accurately weighing compound L015, 20% solutol of the required volume was added thereto first, sonicated for 20 min and stirred for 1.5 hours until no visible particles were visible to the naked eye, and the middle layer of the drug solution was taken for drug administration. 2 parts of the top, middle, and bottom layers of the suspension were taken, and 2 parts of the middle layer of the clarified solution were taken, and 100 μL of each part was accurately aspirated into a 1.5 mL EP tube. Samples were taken before administration, and after sampling, the samples were stored in a −80° C. refrigerator and sent together with the plasma samples for bioanalytical test.
Animals were randomly divided into 3 groups. Compound L015 was administered at 3 different time points, with 3 animals per group, all males. All mice were given a single intragastric administration with an administration volume of 10 mL/kg. The specific grouping and administration information is as follows:
After the administration was completed, the animals in each group were anesthetized by intraperitoneal injection of 1% pentobarbital sodium (the administration volume was 0.06 mL/10 g) 5 minutes before their respective time points, and about 0.3 mL of blood was collected in an anticoagulant EP tube (containing 4 μL of EDTA-K2, 375 mg/mL), which was gently inverted for 3 times and stored in an ice box (no more than 30 minutes), centrifuged at 4° C. for 10 minutes with 3500×g. The supernatant was transferred to a labeled EP tube for bioanalytical test. If it could not be analyzed the same day, it was stored at −80° C. until further testing (be careful not to perform multiple freezing/thawing processes).
After the blood was taken, the abdominal cavity was quickly opened, and the abdominal aorta and vein of the […] were cut. After the blood was drained, the heart, liver, spleen, lung, kidney, and brain of the rat were taken, respectively. After the tissue was taken, the tissue was immediately rinsed with normal saline to remove any residual blood on the surface, blotted dry with filter paper, and the connective tissue was removed and weighed. The homogenization tube was placed in an ice water bath, and the tissue sample homogenate was thoroughly homogenized with a high-speed homogenizer and sent for bioanalytical test. If it could not be analyzed the same day, it was stored at −80° C. until further testing (be careful not to perform multiple thawing/freezing processes).
1.5 Sample analysis method 1.5.1 Experimental instruments: • High performance liquid chromatography pump (pump): Exion LC AD Pump, Sciex Company • Auto sampler: Exion LC AD Autosampler, Sciex Company • Column oven: Exion LC AD Column Oven, Sciex Company • Mass spectrometer: AB Sciex Qtrap 4500 • High-speed refrigerated centrifuge (centrifuge): Thermo Fisher, ST16R, GG1206085-093 • Analytical balance (electronic balance): Mettler Toledo, MS-105D, GG1206363 • Micro vortex (vortex): Shanghai Huxi Analysis Instrument Factory, WH-2, GG1206487 1.5.2 Experimental materials: mouse plasma and tissue
Sample pretreatment process: 3 μL of working solution was taken, and 57 μL of blank matrix was added into a 1.5 mL centrifuge tube, and then 240 μL of acetonitrile solution containing 200 ng/mL tolbutamide and labetalol mixed with 0.1% formic acid was added to precipitate protein. The mixture was vortexed and mixed for 1 minute, and then centrifuged in a 4° C. centrifuge at 13000 rpm for 15 minutes. 100 μL of supernatant was taken and added to another 96 deep well plate, and 100 μL of methanol:water (1:3, v:v) solution containing 0.1% FA was added. The mixture was mixed with shaking for 1 min, and centrifuged at 3500 rpm for 5 min in a 96-well plate centrifuge and the sample was injected directly. […]

A short description of data set [3]: Liver microsome half-life assay, human. Type of data set: in vitro ADME. Conditions: human, liver microsomes; 1 mg/mL liver microsomal protein, 37° C.; read-out: Liver microsome T½ (min) Human. The method, then:
as §1
On the technique in general: Liver microsomes are a subcellular fraction often used to study metabolism.

Like-named read-outs stand apart in the source and are kept apart here.

In the case of `O=C(c1ccc(F)cc1C(F)(F)F)c1cnc2n1CCN(c1cn[nH]c(=O)c1Cl)C2` [Compound 1-6, 4-chloro-5-(3-(4-fluoro-2-(trifluoromethyl)benzoyl)-5,6-dihydroimidazo[1,2-a]pyrazin-7(8H)-yl)pyridazin-3(2H)-one], the half-life turned out to be 247 min in data set [1] and 531 min in data set [3]. For the same molecule, the concentration at 0.167 h worked out at 706 ng/g in data set [2] (brain, 20% solutol, read-out: concentration in brain); 1470 ng/g in data set [2] (kidney, 20% solutol, read-out: concentration in kidney); 3260 ng/g in data set [2] (liver, 20% solutol, read-out: concentration in liver). The concentration at 1 h in data set [2] (brain, 20% solutol, 1 hour) worked out at 161 ng/g. This molecule came in with a concentration at 10 h in data set [2] (brain, 20% solutol, 10 hours) of 25.9 ng/g. Also, the Kp at 0.167 h came out at 0.05 in data set [2] (brain, read-out: brain, times of the plasma concentration); 2.5 in data set [2] (kidney, read-out: kidney, times of the plasma concentration); 5.55 in data set [2] (liver, read-out: liver, times of the plasma concentration). Also, the Kp at 1 h came to 0.19 in data set [2] (brain, 1 hour, read-out: brain, times of the plasma concentration); 2.51 in data set [2] (kidney, 1 hour, read-out: kidney, times of the plasma concentration); 4.53 in data set [2] (liver, 1 hour, read-out: liver, times of the plasma concentration). Also, the Kp at 10 h in data set [2] (brain, 10 hours, read-out: brain, times of the plasma concentration) was determined as 0.09; in data set [2] (kidney, 10 hours, read-out: kidney, times of the plasma concentration), 1.5; in data set [2] (liver, 10 hours, read-out: liver, times of the plasma concentration), 5.05.
